Experimental data reported in patent US20090238895A1, “NUTRITIONAL AND/OR PHARMACEUTICAL PREPARATION FOR USE IN PROPHYLAXIS AND TREATMENT OF DISTURBANCES IN MICROELEMENTS ABSORPTION FROM THE ALIMENTARY CANAL” (priority 2004, published 2009).
Marks after values point to notes of the source that are not given here.

Experiments:
[1] = Iron concentration in plasma of young pigs after FeSO4 or FeSO4/AKG infusion to the duodenum or pelvic intestine; type: in vivo
Method: (§1) Investigations were performed on 3 piglets of the Swedish race Landrace weighting 30-35 kg. Animals originated from the university herd (Swedish Agricultural University, Dept. of Agricultural Biosystems and Technology, Lund). Young pigs were fed 2 times a day at the same time (9:00-10:00 a.m. and 3:00-4:00 p.m.) with a standard fodder (Vaxfor, Lantmanen, Sweden) with a daily dose 50 g/kg body weight. They were watered ad libitum. Animals were held separately in boxes with automatically regulated 12 hour's periods of day and night.
(§2) Sterile catheters and T-fistulas used in the experience were made of silicone tubes with maintained medical standards (Dow Cornning). Piglets were starved for 9-12 hours before the operation. Before the operation animals received a sedative drug—azoperone (Stresnil, 2 mg/kg body weight). Then the inhalation induction of general anaesthesia was performed (Fluothan 0.5-1.5 vol %). […] With the catheters inserted to the portal vein and the common carotid-artery the blood samples for later analyses were collected.
Two incisions were done: one 10-15 cm close to the right hunger fossa, second 2-3 cm between the brachial joint and the angle of the mandible. Duodenal fistula was placed behind the opening of the pancreatic duct to the duodenum. Pelvic T-fistula (int. diameter 3.18 mm and ext. diameter 4.64 mm—both fistulas) was introduced to the pelvic intestine at the end of the caeco-iliac ligament.
The catheter to the portal vein (int. diameter 0.64 mm and ext. diameter 1.19 mm) was introduced through the liver and fixed with several sutures (0-2 Catgut, Ethicon, England). The catheter placed in portal vein and both intestinal fistulas were brought out the body in the line of incision. After dissection of zygomatic vein the catheter was introduced in the cardiac direction on the depth of 7 cm. The vein was closed with the double ligature (0-3 silicone-, Ethicon, England) and brought outside the body with the surgical needle in the dorsal part of the neck. The abdomen and the neck wounds were closed with two layers of sutures: the peritoneum (only in the abdomen wound) and muscles were closed with twisted suture (0-0 Catgut , Ethicon), the skin was closed with the interrupted sutures (Suturamid 2-0, Ethicon). After operation young pigs were placed in separate boxes. During 5 postoperative days animals were fed twice a day, they received water ad libitum. The operation was performed by the skilled surgeon in accordance with surgical techniques.
Before infusion animals were starved. The daily dose of food was given during evening feeding at 3:00 p.m. All infusions were started at 9:00 a.m. Blood samples were taken 30 minutes before and 15, 30, 60 and 120 minutes after the infusion. 2. Infusions composition.

[2] = AKG concentration in plasma of young pigs after AKG or FeSO4/AKG infusion to the duodenum or pelvic intestine; type: in vivo; settings: FeSO4 infused with AKG
Method: as §1, §2
Two incisions were done: one 10-15 cm close to the right hunger fossa, second 2-3 cm between the brachial joint and the angle of the mandible. Duodenal fistula was placed behind the opening of the pancreatic duct to the duodenum. […]

O=S(=O)([O-])[O-].[Fe+2] [FeSO4]
iron concentration in plasma ([1]; infusion to pelvic intestine, portal vein, 15 min): 18.00 ± 5.41^a μmol/l
iron concentration in plasma ([1]; infusion to pelvic intestine, portal vein, 30 min): 17.67 ± 6.53^a μmol/l
iron concentration in plasma ([1]; infusion to pelvic intestine, portal vein, 60 min): 16.83 ± 6.81^a μmol/l
iron concentration in plasma ([1]; infusion to pelvic intestine, portal vein, 120 min): 15.33 ± 7.18^a μmol/l
iron concentration in plasma ([1]; infusion to pelvic intestine, portal vein, -30 min (before infusion)): 19.17 ± 8.69^a μmol/l
iron concentration in plasma ([1]; infusion to pelvic intestine, zygomatic vein, 15 min): 18.83 ± 6.81^a μmol/l
iron concentration in plasma ([1]; infusion to pelvic intestine, zygomatic vein, 30 min): 18.83 ± 6.81^a μmol/l
iron concentration in plasma ([1]; infusion to pelvic intestine, zygomatic vein, 60 min): 18.00 ± 7.47^a μmol/l
iron concentration in plasma ([1]; infusion to pelvic intestine, zygomatic vein, 120 min): 15.67 ± 6.43^a μmol/l
iron concentration in plasma ([1]; infusion to pelvic intestine, zygomatic vein, -30 min (before infusion)): 19.67 ± 7.97^a μmol/l
iron concentration in plasma ([1]; infusion to the duodenum, portal vein, 15 min): 28.5 ± 4.09^b μmol/l
iron concentration in plasma ([1]; infusion to the duodenum, portal vein, 30 min): 37.67 ± 5.3^cb μmol/l
iron concentration in plasma ([1]; infusion to the duodenum, portal vein, 60 min): 40.17 ± 4.62^c μmol/l
iron concentration in plasma ([1]; infusion to the duodenum, portal vein, 120 min): 37.17 ± 4.37^c μmol/l
iron concentration in plasma ([1]; infusion to the duodenum, portal vein, -30 min (before infusion)): 16.33 ± 1.04^a μmol/l
iron concentration in plasma ([1]; infusion to the duodenum, zygomatic vein, 15 min): 29.17 ± 5.51^b μmol/l
iron concentration in plasma ([1]; infusion to the duodenum, zygomatic vein, 30 min): 39.50 ± 4.09^c μmol/l
iron concentration in plasma ([1]; infusion to the duodenum, zygomatic vein, 60 min): 43.0 ± 4.82^c μmol/l
iron concentration in plasma ([1]; infusion to the duodenum, zygomatic vein, 120 min): 39.5 ± 3.5^c μmol/l
iron concentration in plasma ([1]; infusion to the duodenum, zygomatic vein, -30 min (before infusion)): 18.2 ± 1.53^a μmol/l
effect on absorption of AKG from the intestine into the blood [2]: increases the absorption of AKG from the intestine into the blood
